Test [1] concerns P. gingivalis carrying type II FimA fimbrial protein. Put plainly: Binding Inhibitory Experiment 3: fluorescently labeled P. gingivalis bound to seeded test cells. Format: cell-based, Porphyromonas gingivalis. As to conditions: 30 μl beads, 10 μl P. gingivalis, room temperature 10 minutes; FIG. 4. On the procedure: Test cells were seeded into a 96-well plate in an amount of 5×10^5 cells. The next day, 10 μl of P. gingivalis carrying FimA type II fimbrial protein was allowed to bind, and 30 μl each of SBA beads, RGD peptide−SBA beads, and fibronectin−SBA beads were added. The plate was shaken at room temperature for 10 minutes.
The 96-well plate was gently washed. Fluorescently labeled P. gingivalis carrying type II FimA fimbrial protein bound to the cells was detected using a fluorescence detector. P. gingivalis was fluorescently labeled by using an FITC Labeling Kit (manufactured by Kirkegaard & Perry Laboratories, Inc.) after P. gingivalis was immobilized with formalin.

The test system of a further test is TGF-β. Put plainly: Confirmation of cytokine production: TGF-β produced by Ca9-22 cells. In kind it is cell-based. To be noted: 30 μl beads, FIG. 7. On the procedure: Ca9-22 cells were seeded into a 96-well plate in an amount of 5×10^5 cells. The next day, (1) a lipopolysaccharide (hereinafter also referred to as “LPS”; 10 ng/ml), (2) TNF-α(10 ng/ml), (3) P. gingivalis carrying FimA type II fimbrial protein (5 μl), or (4) FimA II-GST (10 μg/ml) was added as a reagent. The parenthesized numerals in the above sentence indicate the final concentrations in the media containing the reagents to 50 μl of the medium.
SBA beads, RGD peptide−SBA beads, or fibronectin−SBA beads were allowed to coexist therewith in an amount of 30 μl, and the plate was rocked. The amount of TGF-β produced was then measured.

In test [2] the test system is binding between gingival cells and FimA II. Kind of test: Effect of monosaccharide on binding inhibitory effect: labeled test cells bound to immobilized FimA II-His. In kind it is cell-based, Porphyromonas gingivalis. As to conditions: monosaccharide final concentration 50 μg/ml with 10 μl RGD peptide−SBA beads; FIG. 6. On the procedure: FimA II-His (10 μg/ml) was immobilized onto a 96-well plate, and test cells that had been fluorescently labeled with CellTracker Green CMFDA (Invitrogen) were bound thereto in an amount of 1×10^6 cells.
SBA beads, RGD peptide, or RGD peptide−SBA beads were allowed to coexist in the wells in an amount of 10 μl, and the plate was shaken. In addition to the RGD peptide−SBA beads, glucose or N-acetylgalactosamine (GalNAc) was allowed to coexist therewith in a final concentration of 50 μg/ml. For comparison, wells of a 96-well plate in which no beads were present and only N-acetylgalactosamine was present in a final concentration of 50 μg/ml were also prepared.
(§1) The 96-well plate was filled with PBS. After unbound cells were removed, bound cells were detected using a fluorescent plate reader.

For test [3], the target named is T1, binding of FimA type II fimbrial protein to α5β1 integrin expression cells (Homo sapiens, UniProt P05556+P08648).
T1 construct: expressed in transfected cells; host or cells: CHO (CHO-VLA5)
T1 sequence (P08648 42-894 limits assumed): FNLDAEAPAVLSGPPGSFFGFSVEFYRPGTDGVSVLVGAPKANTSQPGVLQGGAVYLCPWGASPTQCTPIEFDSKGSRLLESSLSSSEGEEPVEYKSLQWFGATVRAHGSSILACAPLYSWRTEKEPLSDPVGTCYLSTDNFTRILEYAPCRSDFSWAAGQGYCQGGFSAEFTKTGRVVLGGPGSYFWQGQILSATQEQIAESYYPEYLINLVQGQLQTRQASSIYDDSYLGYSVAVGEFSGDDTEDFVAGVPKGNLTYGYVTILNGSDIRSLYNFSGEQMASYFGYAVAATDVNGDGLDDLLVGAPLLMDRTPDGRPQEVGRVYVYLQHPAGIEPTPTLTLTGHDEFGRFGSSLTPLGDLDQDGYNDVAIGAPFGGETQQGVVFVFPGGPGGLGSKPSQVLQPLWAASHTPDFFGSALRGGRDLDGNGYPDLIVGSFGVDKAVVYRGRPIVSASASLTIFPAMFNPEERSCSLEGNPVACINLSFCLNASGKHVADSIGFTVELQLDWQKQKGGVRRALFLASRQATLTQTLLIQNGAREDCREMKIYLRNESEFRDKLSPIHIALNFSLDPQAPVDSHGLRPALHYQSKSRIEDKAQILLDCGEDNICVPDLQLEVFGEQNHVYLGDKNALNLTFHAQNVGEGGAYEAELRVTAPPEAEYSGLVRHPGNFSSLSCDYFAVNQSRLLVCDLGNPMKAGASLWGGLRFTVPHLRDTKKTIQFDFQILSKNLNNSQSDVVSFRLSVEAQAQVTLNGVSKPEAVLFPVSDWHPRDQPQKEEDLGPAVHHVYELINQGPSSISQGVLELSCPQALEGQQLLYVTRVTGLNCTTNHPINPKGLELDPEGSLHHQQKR
T1 sequence (P08648 895-1049 limits assumed): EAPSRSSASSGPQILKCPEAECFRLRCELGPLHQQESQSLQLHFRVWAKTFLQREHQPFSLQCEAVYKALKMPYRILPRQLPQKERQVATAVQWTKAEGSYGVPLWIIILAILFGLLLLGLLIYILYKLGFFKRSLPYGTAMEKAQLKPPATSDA
T1 sequence (P05556 21-798): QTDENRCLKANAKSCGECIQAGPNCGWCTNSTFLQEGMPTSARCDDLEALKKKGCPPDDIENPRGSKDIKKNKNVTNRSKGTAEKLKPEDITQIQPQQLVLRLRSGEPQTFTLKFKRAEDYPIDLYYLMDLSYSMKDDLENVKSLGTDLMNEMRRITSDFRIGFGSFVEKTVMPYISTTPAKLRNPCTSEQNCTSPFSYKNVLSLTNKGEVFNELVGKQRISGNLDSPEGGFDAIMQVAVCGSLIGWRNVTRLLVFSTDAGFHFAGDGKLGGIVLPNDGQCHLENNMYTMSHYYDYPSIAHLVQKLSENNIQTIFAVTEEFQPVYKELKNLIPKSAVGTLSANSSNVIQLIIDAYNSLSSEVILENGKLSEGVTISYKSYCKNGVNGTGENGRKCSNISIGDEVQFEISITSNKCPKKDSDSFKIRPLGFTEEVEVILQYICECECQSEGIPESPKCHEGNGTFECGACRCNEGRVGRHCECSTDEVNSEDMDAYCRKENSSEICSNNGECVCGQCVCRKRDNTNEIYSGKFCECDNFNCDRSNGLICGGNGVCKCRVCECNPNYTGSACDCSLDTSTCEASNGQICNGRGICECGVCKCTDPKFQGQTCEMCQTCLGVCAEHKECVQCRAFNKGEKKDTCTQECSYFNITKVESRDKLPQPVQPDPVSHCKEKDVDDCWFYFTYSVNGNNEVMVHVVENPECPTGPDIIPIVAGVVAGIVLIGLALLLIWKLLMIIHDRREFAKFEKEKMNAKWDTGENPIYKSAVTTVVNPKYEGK
Put plainly: Binding Inhibitory Experiment 1: FimA II-His bound to seeded test cells, detected by ELISA. Format: cell-based, Porphyromonas gingivalis. As to conditions: cells immobilized; 10 μl beads; about 30 μM RGD peptide or fibronectin, about 100 μM SBA; compared to fibronectin or RGD peptide alone; FIG. 2. On the procedure: (§2) CHO cells on which α5β1 integrin was forcedly expressed by introducing a gene encoding α5β1 integrin (hereinafter sometimes referred to as “CHO-VLA5”), and gingival cells were used in the Binding Inhibitory Experiments described below. As the gingival cells, three types of cells, GE1, Ca9-22 and Sa3, were used. As a control, CHO cells into which α5β1 integrin was not introduced were used. GE1, Ca9-22, and Sa3 were obtained from ATCC (American Type Culture Collection).
Test cells were seeded into a 96-well plate in an amount of 5×10^5 cells. Subsequently, 50 μl of FimA II-His (10 μg/ml) was allowed to bind to the cells, and 10 μl of SBA beads, RGD peptide−SBA beads, or fibronectin−SBA beads were allowed to coexist. The plate was shaken at room temperature for 10 minutes. For comparison, an experiment in which an RGD peptide or fibronectin was allowed to coexist was performed in a similar manner. […]
After the 96-well plate was gently washed, FimA II-His bound to the cells was detected by ELISA using an anti-His tag antibody (Cat. No. 71554-3; available from Novagen).
The fibronectin−SBA bead solution contained about 30 μM of fibronectin and about 100 μM of SBA, whereas the solution containing only fibronectin contained about 30 μM of fibronectin. These values were calculated by measuring the amount of each protein not bound to the beads during the production. […]
In general terms: In an ELISA, binding on a coated surface is turned into a signal by an enzyme label.

For test [4], the target named is T2, binding of type II FimA protein to α5β1 integrin expression cells (Homo sapiens, UniProt P05556+P08648).
T2 construct: expressed in transfected cells; host or cells: CHO (CHO-VLA5)
T2 sequence (P08648 42-894 limits assumed): as the sequence (P08648 42-894 limits assumed) above
T2 sequence (P08648 895-1049 limits assumed): as the sequence (P08648 895-1049 limits assumed) above
T2 sequence (P05556 21-798): as the sequence (P05556 21-798) above
Kind of test: Binding Inhibitory Experiment 2: fluorescently labeled test cells bound to immobilized FimA II-His. In kind it is cell-based, Porphyromonas gingivalis. As to conditions: 50 μl beads, compared to fibronectin or RGD peptide alone, FIG. 3. How it is done: as §2
FimA II-His (10 μg/(ml)) was immobilized onto a 96-well plate, and test cells that had been fluorescently labeled with CellTracker Green CMFDA (available from Invitrogen) were added in an amount of 1×10^6 cells and allowed to bind.
50 μl of SBA beads, RGD peptide−SBA beads, or fibronectin−SBA beads were allowed to coexist in each well, and the plate was shaken. For comparison, an experiment in which an RGD peptide or fibronectin was allowed to coexist was performed in a similar manner.
Each well of the 96-well plates was filled with serum-free Dulbecco's modified Eagle's medium (hereinafter referred to as DMEM) or with PBS, and covered with a Parafilm to prevent air from entering. The plate was turned upside-down and allowed to stand for 5 minutes. After removing the Parafilm, a supernatant containing unbound cells was removed, and bound cells were detected using a fluorescent plate reader.

For test [5], the target named is T3, α5β1 integrin expressing cells (Homo sapiens, UniProt P05556+P08648).
T3 construct: expressed in transfected cells; host or cells: CHO (CHO-VLA5)
T3 sequence (P08648 42-894 limits assumed): as the sequence (P08648 42-894 limits assumed) above
T3 sequence (P08648 895-1049 limits assumed): as the sequence (P08648 895-1049 limits assumed) above
T3 sequence (P05556 21-798): as the sequence (P05556 21-798) above
Kind of test: Binding ratio of RGD peptide or fibronectin to SBA beads, FimA II-His binding inhibitory experiment. Format: cell-based. As to conditions: RGD peptide bound in an amount of 10 to 30 μg per 100 μg of SBA beads. On the procedure: Another experiment was performed using α5β1 integrin expressing cells in a manner similar to the FimA II-His tag protein binding inhibitory experiment described above, to investigate the binding ratio of RGD peptide or fibronectin to SBA beads.

The subject of test [6] is TNFRI (TNF-α Receptor Type I). Kind of test: TNFRI phosphorylation by western blotting in test cells treated with P. gingivalis. Format: cell-based. As to conditions: test cells with P. gingivalis carrying type II FimA fimbrial protein (10 μl), 30 μl beads, FIG. 8. On the procedure:
Test cells were seeded into a 96-well plate in an amount of 5×10^5 cells. The next day, each well was washed with DMEM, and then P. gingivalis carrying type II FimA fimbrial protein (10 μl) was added as a reagent. The numerical value in the parentheses indicates the final concentration in the medium containing the reagent.
SBA beads, RGD peptide−SBA beads, or fibronectin−SBA beads were allowed to coexist therewith in an amount of 30 μl, and the plate was shaken. After each plate was washed well with PBS, cells were dissolved in 1% NP-40, and subjected to western blotting using an anti-TNFRI antibody, anti-tyrosine phosphorylation antibody, and anti-actin antibody.
On the technique in general: A western blot detects proteins with antibodies after separation by electrophoresis.

The test system of test [7] is interaction between gingival cells and FimA II. Kind of test: Comparison with other lectins: labeled test cells bound to immobilized FimA II-His. In kind it is cell-based, Porphyromonas gingivalis. To be noted: 10 μL beads; SBA compared to WGA (wheat germ lectin); FIG. 5. How it is done:
FimA II-His (10 μg/ml) was immobilized onto a 96-well plate, and test cells that had been fluorescently labeled with CellTracker Green CMFDA (manufactured by Invitrogen) were bound in an amount of 1×10^6 cells.
Subsequently, 10 μL of SBA beads, RGD peptides, RGD peptide−SBA beads, WGA beads, or RGD peptide-WGA beads were allowed to coexist, and the plate was shaken.
The WGA beads are beads prepared in the same manner as in the production of SBA beads described above in Item 1, except for using WGA in place of SBA. The RGD peptide-WGA beads are beads prepared in the same manner as in the production of RGD peptide−SBA beads described above in Item 2, except for using WGA in place of SBA.
as §1

Where [8] appears, read: Ca9-22 cells treated with LPS 10 ng/ml.
[9] abbreviates: Ca9-22 cells treated with TNF-α 10 ng/ml.
[10] abbreviates: Ca9-22 cells with FimA II-GST 10 μg/ml.
The mark [11] stands for this setting: Ca9-22 cells with P. gingivalis carrying FimA type II fimbrial protein (5 μl).

“Also recorded” adds a separate entry of the source.

Regarding “SBA beads: conjugate of soybean lectin and NHS-activated Sepharose beads”, the “inhibition of binding of P. gingivalis carrying type II FimA fimbrial protein to gingival cells” value in test [1] was “slightly inhibited binding”. Moreover, the “production of TGF-β” value was “production of TGF-β was observed” with TGF-β (setting [8]), “production of TGF-β was observed” with TGF-β (setting [9]), “production of TGF-β was detected” in the test with TGF-β (setting [10]) and “production of TGF-β was detected” with TGF-β (setting [11]).

As to `CC(=O)N[C@H]1C(O)O[C@H](CO)[C@H](O)[C@@H]1O` (stereo partly shown) [N-acetylgalactosamine], in test [2], the “effect of coexisting monosaccharide on the RGD peptide−SBA binding inhibitory effect” value is “did so”.

For the molecule “RGD peptide−SBA beads: beads in which SBA beads and RGD-peptide (SEQ ID NO: 3, RGDSPASSKP) are bound”, in test [1], the “inhibition of binding of P. gingivalis carrying type II FimA fimbrial protein to gingival cells” value is recorded as “inhibited; also recorded: remarkably high binding inhibitory effect”. In addition, the “inhibition of binding of FimA type II fimbrial protein to α5β1 integrin expression cells” value in test [3] is given as “significantly inhibited”. Also, the “inhibition of binding of type II FimA protein to α5β1 integrin expression cells” value in test [4] was “significantly inhibited; also recorded: higher than that of fibronectin−SBA beads”. In addition, the “binding inhibition depending on binding ratio of RGD peptide to SBA beads” value in test [5] is “inhibited binding most effectively”. For the same molecule, the “phosphorylated tyrosine of the activation receptor (TNFRI)” value in test [6] was “not detected”. For the same molecule, the “production of TGF-β” value in the test on TGF-β (setting [8]) is listed as “production of TGF-β was observed”; in the test with TGF-β (setting [9]), “production of TGF-β was observed”; in the test with TGF-β (setting [10]), “production of TGF-β was inhibited”; in the test with TGF-β (setting [11]) it was “production of TGF-β was inhibited”.

For the molecule “SBA: soybean lectin (soybean agglutinin), mucin-type sugar chain-binding lectin; tested bound to beads”, in test [7], the “inhibition of the interaction between gingival cells and FimA II” value is given as “more potently inhibits”.
